Reference: patent US6277847A, “Herbicidal isoindolinonyl-and 3,4-dihydroisoquinolonyl-substituted heterocycles” (FMC Corporation, priority 2000, dated 2001)

Key:
Format in all cases: in vivo
[1] = system: soybean (Glycine max -- var. Winchester); assay: pre-emergence herbicidal activity, soybean; details: 1 kg/Ha, about fourteen days, read-out: pre-emergence herbicidal activity (% control) SOY
Procedure: (§1) This example sets forth the methods of herbicidal testing conducted on the specific compounds set forth below. Specifically, the compounds referenced below were tested for pre- and post-emergence herbicidal activity using a variety of crops and weeds. The test plants include, but are not limited to, soybean (Glycine max -- var. Winchester), field corn (Zea mays var. Pioneer 3732), wheat (Triticum aestivum var. Lew), morningglory (Ipomea lacunosa or Ipomea hederacea), velvetleaf (Abutilon theophrasti), green foxtail (Setaria viridis), Johnsongrass (Sorghum halepense), blackgrass (Aloepecurus myosuroides), common chickweed (Stellaria media), and common cocklebur (Xanthium strumarium L.).
(§2) In the post-emergence test, seeds of the plant species named above were planted in flats containing the appropriate soil mixture where they were maintained to allow the seeds to germinate. When the plants in these flats reached the proper stage of growth, flats for the pre-emergence tests were planted in a like manner. The flats containing the post-emergence and pre-emergence test plant species were then sprayed with an appropriately concentrated water/acetone solution of test compound. Once treated the flats were maintained, along with untreated controls, for about fourteen days. All treated plants were then examined for phytotoxicity, which was expressed as percent control where 0 is no effect and 100 is complete control. Effective rates of application for the compounds of the present invention range from 0.001 to 3 kg/ha, more likely from […] to 1 Kg/ha.
(§3) Herbicidal activity data at selected application rates are in Tables 4 and 5. The test compounds are identified by numbers correspond to those in Table 1.
(§4) Rate of application of test compound is 1 kg/Ha
(§5) SOY is soybean, WHT is wheat, CRN is corn, ABUTH is velvetleaf, IPOSS is
(§6) morningglory, STEME is chickweed, XANPE is cocklebur, ALOMY is blackgrass, […]

[2] = system: wheat (Triticum aestivum var. Lew); assay: pre-emergence herbicidal activity, wheat; details: 1 kg/Ha, about fourteen days, read-out: pre-emergence herbicidal activity (% control) WHT
Procedure: as §1, §2, §3, §4, §5, §6

[3] = system: field corn (Zea mays var. Pioneer 3732); assay: pre-emergence herbicidal activity, corn; details: 1 kg/Ha, about fourteen days, read-out: pre-emergence herbicidal activity (% control) CRN
Procedure: as §1, §2, §3, §4, §5, §6

[4] = system: velvetleaf (Abutilon theophrasti); assay: pre-emergence herbicidal activity, velvetleaf; details: 1 kg/Ha, about fourteen days, read-out: pre-emergence herbicidal activity (% control) ABUTH
Procedure: as §1, §2, §3, §4, §5, §6

[5] = system: morningglory (Ipomea lacunosa or Ipomea hederacea); assay: pre-emergence herbicidal activity, morningglory; details: Ipomoea, 1 kg/Ha, about fourteen days, read-out: pre-emergence herbicidal activity (% control) IPOSS
Procedure: as §1, §2, §3, §4, §5, §6

[6] = system: common chickweed (Stellaria media); assay: pre-emergence herbicidal activity, chickweed; details: 1 kg/Ha, about fourteen days, read-out: pre-emergence herbicidal activity (% control) STEME
Procedure: as §1, §2, §3, §4, §5, §6

[7] = system: common cocklebur (Xanthium strumarium L.); assay: pre-emergence herbicidal activity, cocklebur; details: 1 kg/Ha, about fourteen days, read-out: pre-emergence herbicidal activity (% control) XANPE
Procedure: as §1, §2, §3, §4, §5, §6

[8] = system: blackgrass (Aloepecurus myosuroides); assay: pre-emergence herbicidal activity, blackgrass; details: Alopecurus myosuroides, 1 kg/Ha, about fourteen days, read-out: pre-emergence herbicidal activity (% control) ALOMY
Procedure: as §1, §2, §3, §4, §5, §6

[9] = system: green foxtail (Setaria viridis); assay: pre-emergence herbicidal activity, green foxtail; details: 1 kg/Ha, about fourteen days, read-out: pre-emergence herbicidal activity (% control) SETVI
Procedure: as §1, §2, §3, §4, §5, §6

[10] = system: Johnsongrass (Sorghum halepense); assay: pre-emergence herbicidal activity, johnsongrass; details: 1 kg/Ha, about fourteen days, read-out: pre-emergence herbicidal activity (% control) SORHA
Procedure: as §1, §2, §3, §4, §5, §6

[11] = system: soybean (Glycine max -- var. Winchester); assay: post-emergence herbicidal activity, soybean; details: 1 Kg/Ha, about fourteen days, read-out: post-emergence herbicidal activity (% control) SOY
Procedure: as §1, §2, §3, §5
(§7) morningglory, STEME is chickweed, XANPE is cocklebur, ALOMY is blackgrass,
(§8) Rate of application of test compound is 1 Kg/Ha. The definitions as shown under Table 4 apply to Table 5.

[12] = system: wheat (Triticum aestivum var. Lew); assay: post-emergence herbicidal activity, wheat; details: 1 Kg/Ha, about fourteen days, read-out: post-emergence herbicidal activity (% control) WHT
Procedure: as §1, §2, §3, §5, §7, §8

[13] = system: field corn (Zea mays var. Pioneer 3732); assay: post-emergence herbicidal activity, corn; details: 1 Kg/Ha, about fourteen days, read-out: post-emergence herbicidal activity (% control) CRN
Procedure: as §1, §2, §3, §5, §7, §8

[14] = system: velvetleaf (Abutilon theophrasti); assay: post-emergence herbicidal activity, velvetleaf; details: 1 Kg/Ha, about fourteen days, read-out: post-emergence herbicidal activity (% control) ABUTH
Procedure: as §1, §2, §3, §5, §7, §8

[15] = system: morningglory (Ipomea lacunosa or Ipomea hederacea); assay: post-emergence herbicidal activity, morningglory; details: Ipomoea, 1 Kg/Ha, about fourteen days, read-out: post-emergence herbicidal activity (% control) IPOSS
Procedure: as §1, §2, §3, §5, §7, §8

[16] = system: common cocklebur (Xanthium strumarium L.); assay: post-emergence herbicidal activity, cocklebur; details: 1 Kg/Ha, about fourteen days, read-out: post-emergence herbicidal activity (% control) XANPE
Procedure: as §1, §2, §3, §5, §7, §8

[17] = system: green foxtail (Setaria viridis); assay: post-emergence herbicidal activity, green foxtail; details: 1 Kg/Ha, about fourteen days, read-out: post-emergence herbicidal activity (% control) SETVI
Procedure: as §1, §2, §3, §5, §7, §8

[18] = system: Johnsongrass (Sorghum halepense); assay: post-emergence herbicidal activity, johnsongrass; details: 1 Kg/Ha, about fourteen days, read-out: post-emergence herbicidal activity (% control) SORHA
Procedure: as §1, §2, §3, §5, §7, §8

[19] = system: common chickweed (Stellaria media); assay: post-emergence herbicidal activity, chickweed; details: 1 Kg/Ha, about fourteen days, read-out: post-emergence herbicidal activity (% control) STEME
Procedure: as §1, §2, §3, §5, §7, §8

[20] = system: blackgrass (Aloepecurus myosuroides); assay: post-emergence herbicidal activity, blackgrass; details: Alopecurus myosuroides, 1 Kg/Ha, about fourteen days, read-out: post-emergence herbicidal activity (% control) ALOMY
Procedure: as §1, §2, §3, §5, §7, §8

Row | Compound | activity at 1000 g/ha [1] [%] | activity at 1000 g/ha [2] [%] | activity at 1000 g/ha [3] [%] | activity at 1000 g/ha [4] [%] | activity at 1000 g/ha [5] [%] | activity at 1000 g/ha [6] [%] | activity at 1000 g/ha [7] [%] | activity at 1000 g/ha [8] [%] | activity at 1000 g/ha [9] [%] | activity at 1000 g/ha [10] [%] | activity at 1000 g/ha [11] [%] | activity at 1000 g/ha [12] [%] | activity at 1000 g/ha [13] [%] | activity at 1000 g/ha [14] [%] | activity at 1000 g/ha [15] [%] | activity at 1000 g/ha [16] [%] | activity at 1000 g/ha [17] [%] | activity at 1000 g/ha [18] [%] | activity at 1000 g/ha [19] [%] | activity at 1000 g/ha [20] [%]
1 | Cn1c(C(F)(F)F)cc(=O)n(-c2c(Cl)cc(Cl)c3c2CN(O)C3=O)c1=O [Compound 16] | 50 | 70 | 90 | 100 | 65 | 5 | 80 | 60 | 100 | 100 | 60 | 20 | 40 | 50 | 20 | 30 | 30 | 30 | – | –
2 | CCON1Cc2c(-n3c(=O)cc(C(F)(F)F)n(C)c3=O)ccc(Cl)c2C1=O [Compound 19] | 100 | 100 | 100 | 100 | 100 | 100 | 100 | – | 100 | 100 | 100 | 100 | 100 | 100 | 100 | 100 | 100 | 100 | 100 | –
3 | C=CCN1Cc2c(-n3c(=O)cc(C(F)(F)F)n(C)c3=O)ccc(Cl)c2C1=O [Compound 20] | 100 | 100 | 100 | 100 | 100 | 100 | 100 | – | 100 | 100 | 100 | 100 | 100 | 100 | 100 | 100 | 100 | 100 | 100 | –
4 | CON1Cc2c(-n3c(=O)cc(C(F)(F)F)n(C)c3=O)ccc(Cl)c2C1=O [Compound 21] | 100 | 100 | 100 | 100 | 100 | 100 | 100 | – | 100 | 100 | 100 | 80 | 80 | 100 | 100 | 95 | 100 | 100 | 100 | –
5 | CCN1Cc2c(-n3c(=O)cc(C(F)(F)F)n(C)c3=O)ccc(Cl)c2C1=O [Compound 22] | 100 | 100 | 100 | 100 | 100 | 100 | 100 | – | 100 | 100 | 100 | 100 | 100 | 100 | 100 | 100 | 100 | 100 | 100 | –
6 | CCn1c(C(F)(F)F)cc(=O)n(-c2ccc(Cl)c3c2CN(C(C)C)C3=O)c1=O [Compound 71] | 100 | 100 | 100 | 100 | 100 | 100 | 100 | 90 | 100 | – | 90 | 80 | 90 | 95 | 95 | 70 | 100 | – | 100 | 100
7 | CCCn1c(C(F)(F)F)cc(=O)n(-c2ccc(Cl)c3c2CN(C(C)C)C3=O)c1=O [Compound 72] | 20 | 30 | 70 | 40 | 25 | 65 | 40 | 30 | 75 | – | 60 | 0 | 60 | 20 | 10 | 10 | 50 | – | 10 | 10
8 | CC(C)N1Cc2c(-n3c(=O)cc(C(F)(F)F)n(Cc4ccccc4)c3=O)ccc(Cl)c2C1=O [Compound 73] | 95 | 69 | 90 | 100 | 40 | 100 | 70 | 70 | 100 | – | 90 | 50 | 75 | 100 | 80 | 75 | 60 | – | 100 | 70
9 | CCOC(=O)Cn1c(C(F)(F)F)cc(=O)n(-c2ccc(Cl)c3c2CN(C(C)C)C3=O)c1=O [Compound 74] | 5 | 0 | 0 | 5 | 20 | 10 | 30 | 10 | 5 | – | 40 | 10 | 30 | 20 | 30 | 20 | 10 | – | 20 | 30
